The molecules below were run against T1, human Nav1.3 channels (Homo sapiens, UniProt Q9NY46) (assay: FRET assay, human Nav1.3 (EFS on FDSS)). Conditions: HEK293 cells expressing human Nav1.3, read-out: IC50 against Nav1.3.
T1 construct: expressed in transfected cells; host or cells: HEK293
Assay type: cell-based
Protocol: The inhibitory activities of compounds against voltage gated sodium channels are determined by methodology well known in the art.
The ability of the aryl substituted carboxamide derivatives of the formula (I) to inhibit the NaV1.3, Nav1.7 and Nav1.5 channels is measured by Fluorescence Resonance Energy Transfer (FRET) assay and electrophysiology assay described below.
This screen is used to determine the effects of compounds on human Nav1.3, human Nav1.7, and human Nav1.5 channels, utilising electrical field stimulation (EFS) system in 96-well plate format on FDSS (Hamamatsu Photonics) platform. The change of membrane potential is monitored with FRET dye pair, oxonol (DiSBAC2(3)) and coumarin (CC2-DMPE).
Each HEK293 cells expressing human Nav1.3 channels and HEK293 cells expressing human Nav1.5 channels are grown in T225 flasks, in a 5% CO2 humidified incubator to about 80% confluence. Media composition consists of Dulbecco's Modified Eagle Medium (high glucose), 10% FCS, 100 units/mL Penicillin, 100 microgram/mL Streptomycin and 500 microgram/mL Geneticine.
Protocol: • Seed each cell lines (1×10^5 cells/well) into poly-D-lysine coated 96-well plates prior to experimentation. • Incubate at 37° C. in 5% CO2 for 24 hours. • Wash each well with assay buffer (140 mM NaCl, 4.5 mM KCl, 10 mM D-Glucose, 2 mM CaCl2, 1 mM MgCl2, 10 mM HEPES, pH 7.4 adjusted with NaOH) twice. • Add 1st loading solution containing 10 microM CC2-DMPE and 0.06% Pluronic F-127 in assay buffer. • Incubate the plate at room temperature in dark for 1 hour. • Remove 1st loading solution and added 2nd loading solution containing 15 microM DiSBAC2(3), 0.555 mM VABSC-1 and 0.004% Pluronic F-127 in assay buffer. • Place the plate under the dark at room temperature for 25 minutes. • Add compound solutions into the assay plate. • Set the assay plate in FDSS and placed an EFS device on the plate. • Measure EFS-induced fluorescent response by FDSS.
The data are analyzed and reported as normalized ratios of intensities measured at […]. The process of calculating these ratios is performed as follows:
This analysis is performed using a computerized specific program designed for FDSS generated data. Fluorescence ratio values are plotted using XLfit to determine an IC50 value for each compound.

T1 sequence (Q9NY46 whole entry): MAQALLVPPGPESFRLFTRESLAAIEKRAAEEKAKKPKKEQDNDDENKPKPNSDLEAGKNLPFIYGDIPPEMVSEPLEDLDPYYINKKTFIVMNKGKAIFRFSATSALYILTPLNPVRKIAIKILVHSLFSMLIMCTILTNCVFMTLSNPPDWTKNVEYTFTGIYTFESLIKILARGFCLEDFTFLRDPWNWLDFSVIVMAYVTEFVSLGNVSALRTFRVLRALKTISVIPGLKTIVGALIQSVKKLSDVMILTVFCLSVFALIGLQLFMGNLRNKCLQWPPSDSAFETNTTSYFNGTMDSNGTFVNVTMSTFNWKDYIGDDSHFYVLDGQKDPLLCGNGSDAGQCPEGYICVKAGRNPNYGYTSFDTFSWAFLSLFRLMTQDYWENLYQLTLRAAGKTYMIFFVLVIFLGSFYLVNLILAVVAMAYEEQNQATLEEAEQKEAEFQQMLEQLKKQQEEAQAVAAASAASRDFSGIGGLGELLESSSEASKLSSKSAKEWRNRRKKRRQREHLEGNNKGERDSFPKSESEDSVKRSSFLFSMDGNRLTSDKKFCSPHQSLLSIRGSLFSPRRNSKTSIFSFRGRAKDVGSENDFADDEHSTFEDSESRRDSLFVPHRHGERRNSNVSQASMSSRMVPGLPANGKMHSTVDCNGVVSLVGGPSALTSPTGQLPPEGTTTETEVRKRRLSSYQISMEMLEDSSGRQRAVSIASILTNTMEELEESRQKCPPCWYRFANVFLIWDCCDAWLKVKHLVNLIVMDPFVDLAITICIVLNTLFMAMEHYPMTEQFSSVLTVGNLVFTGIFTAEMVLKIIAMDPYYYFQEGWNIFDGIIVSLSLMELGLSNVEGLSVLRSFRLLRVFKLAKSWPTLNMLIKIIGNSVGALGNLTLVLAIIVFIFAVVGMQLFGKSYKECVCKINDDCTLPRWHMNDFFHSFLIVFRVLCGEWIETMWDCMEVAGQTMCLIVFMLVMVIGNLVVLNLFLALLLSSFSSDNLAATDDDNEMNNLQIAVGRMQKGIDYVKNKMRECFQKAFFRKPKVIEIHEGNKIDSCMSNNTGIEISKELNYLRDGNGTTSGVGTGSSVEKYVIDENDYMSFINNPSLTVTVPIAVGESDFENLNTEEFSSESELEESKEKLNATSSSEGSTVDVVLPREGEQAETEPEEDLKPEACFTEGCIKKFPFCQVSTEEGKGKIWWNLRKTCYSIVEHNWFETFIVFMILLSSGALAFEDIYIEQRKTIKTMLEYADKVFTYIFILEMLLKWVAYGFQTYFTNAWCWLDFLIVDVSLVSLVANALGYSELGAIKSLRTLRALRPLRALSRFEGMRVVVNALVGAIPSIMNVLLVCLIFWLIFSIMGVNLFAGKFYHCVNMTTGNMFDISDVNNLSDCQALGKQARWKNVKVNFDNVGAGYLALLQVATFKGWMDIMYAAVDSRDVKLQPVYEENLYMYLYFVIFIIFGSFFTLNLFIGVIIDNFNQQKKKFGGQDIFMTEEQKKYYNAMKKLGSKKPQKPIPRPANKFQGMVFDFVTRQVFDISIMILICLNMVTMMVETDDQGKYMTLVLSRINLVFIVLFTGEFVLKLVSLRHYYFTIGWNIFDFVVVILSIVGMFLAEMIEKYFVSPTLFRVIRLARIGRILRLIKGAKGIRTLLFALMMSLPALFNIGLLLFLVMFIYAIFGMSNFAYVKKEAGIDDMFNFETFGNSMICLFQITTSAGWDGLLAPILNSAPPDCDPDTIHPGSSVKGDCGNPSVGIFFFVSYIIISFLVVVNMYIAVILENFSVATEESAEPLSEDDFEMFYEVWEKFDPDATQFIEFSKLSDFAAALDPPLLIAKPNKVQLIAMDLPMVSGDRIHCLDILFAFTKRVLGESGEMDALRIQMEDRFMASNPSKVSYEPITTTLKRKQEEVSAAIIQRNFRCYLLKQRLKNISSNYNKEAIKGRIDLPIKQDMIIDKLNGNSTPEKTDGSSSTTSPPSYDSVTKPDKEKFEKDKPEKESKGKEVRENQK

IC50, < 1000 nM:
O=C(NCc1cccc(OC(F)(F)F)c1F)c1ccnc(NC(=O)C2CC2)c1 [Example 748, 2-(cyclopropanecarboxamido)-N-(2-fluoro-3-(trifluoromethoxy)benzyl)isonicotinamide]
C=C(C)C(=O)Nc1cc(C(=O)NC(C)c2ccc(OCC(F)(F)F)nc2)cc(C)n1 (single isomer, unassigned) [Example 571, 2-methacrylamido-6-methyl-N-(1-(6-(2,2,2-trifluoroethoxy)pyridin-3-yl)ethyl)isonicotinamide]
CC(C)C(=O)Nc1cc(C(=O)NCc2ccc(OCC(F)(F)C(F)(F)F)nc2)ccn1 [Example 641, 2-isobutyramido-N-((6-(2,2,3,3,3-pentafluoropropoxy)pyridin-3-yl)methyl)isonicotinamide]
CCc1cc(CNC(=O)c2cc(C)nc(NC(C)=O)c2)cnc1OCC(F)(F)F [Example 713, 2-acetamido-N-((5-ethyl-6-(2,2,2-trifluoroethoxy)pyridin-3-yl)methyl)-6-methylisonicotinamide]
CC(C)C(=O)Nc1cc(C(=O)NCc2cccc(C(F)(F)F)c2F)ccn1 [Example 730, N-(2-fluoro-3-(trifluoromethyl)benzyl)-2-isobutyramidoisonicotinamide]
CCc1cc(CNC(=O)c2ccnc(NC(=O)C(C)C)c2)cnc1OCC(F)(F)F [Example 712, N-((5-ethyl-6-(2,2,2-trifluoroethoxy)pyridin-3-yl)methyl)-2-isobutyramidoisonicotinamide]
CCC(=O)Nc1cc(C(=O)NCc2ccc(OCC(F)(F)F)nc2)ccn1 [Example 151, 2-propionamido-N-((6-(2,2,2-trifluoroethoxy)pyridin-3-yl)methyl)isonicotinamide]
CC(=O)Nc1cc(C(=O)NCc2cccc(OCC(F)(F)F)n2)cc(C)n1 [Example 466, 2-acetamido-6-methyl-N-((6-(2,2,2-trifluoroethoxy)pyridin-2-yl)methyl)isonicotinamide]
CCC(=O)Nc1cc(C(=O)NCc2cccc(OC(F)(F)F)c2F)cc(C)n1 [Example 749, N-(2-fluoro-3-(trifluoromethoxy)benzyl)-2-methyl-6-propionamidoisonicotinamide]
CCC(=O)Nc1cc(C(=O)NCc2ccc(OCC(F)(F)C(F)(F)F)nc2)ccn1 [Example 639, N-((6-(2,2,3,3,3-pentafluoropropoxy)pyridin-3-yl)methyl)-2-propionamidoisonicotinamide]
Cc1cc(CNC(=O)c2ccnc(NC(=O)C3CC3)n2)cc(OC(F)(F)F)c1 [Example 604, 2-(cyclopropanecarboxamido)-N-(3-methyl-5-(trifluoromethoxy)benzyl)pyrimidine-4-carboxamide]
CCC(=O)Nc1cc(C(=O)NCc2cnc(OCC(F)(F)F)c(CC)c2)cc(C)n1 [Example 714, N-((5-ethyl-6-(2,2,2-trifluoroethoxy)pyridin-3-yl)methyl)-2-methyl-6-propionamidoisonicotinamide]
CC(C)C(=O)Nc1cc(C(=O)NCc2cccc(OCC(F)(F)F)n2)ccn1 [Example 468, 2-isobutyramido-N-((6-(2,2,2-trifluoroethoxy)pyridin-2-yl)methyl)isonicotinamide]
CC(=O)Nc1cc(C(=O)NCc2cc(C(F)(F)F)ccc2F)cc(C)n1 [Example 574, 2-acetamido-N-(2-fluoro-5-(trifluoromethyl)benzyl)-6-methylisonicotinamide]
CCC(=O)Nc1cc(C(=O)NCc2cccc(OCC(F)(F)F)n2)ccn1 [Example 464, 2-propionamido-N-((6-(2,2,2-trifluoroethoxy)pyridin-2-yl)methyl)isonicotinamide]
Cc1cc(CNC(=O)c2ccnc(NC(=O)C(C)C)c2)nc(OCC(F)(F)F)c1 [Example 576, 2-isobutyramido-N-((4-methyl-6-(2,2,2-trifluoroethoxy)pyridin-2-yl)methyl)isonicotinamide]
CCc1cc(CNC(=O)c2cc(C)nc(NC(=O)C3CC3)n2)cnc1OCC(F)(F)F [Example 718, 2-(cyclopropanecarboxamido)-N-((5-ethyl-6-(2,2,2-trifluoroethoxy)pyridin-3-yl)methyl)-6-methylpyrimidine-4-carboxamide]
CCC(=O)Nc1cc(C(=O)NCc2cnc(OCC(F)(F)F)c(CC)c2)ccn1 [Example 710, N-((5-ethyl-6-(2,2,2-trifluoroethoxy)pyridin-3-yl)methyl)-2-propionamidoisonicotinamide]
COCCNc1nc(C)cc(C(=O)NC(C)c2cnc(OCC(F)(F)F)c(C)c2)n1 (single isomer, unassigned) [Example 475, 2-((2-methoxyethyl)amino)-6-methyl-N-(1-(5-methyl-6-(2,2,2-trifluoroethoxy)pyridin-3-yl)ethyl)pyrimidine-4-carboxamide]
CCC(=O)Nc1cc(C(=O)NCc2cc(OC(F)(F)F)ccc2F)ccn1 [Example 607, N-(2-fluoro-5-(trifluoromethoxy)benzyl)-2-propionamidoisonicotinamide]
CCC(=O)Nc1cc(C(=O)NCc2ccc(OC(F)(F)F)c(Cl)c2)ccn1 [Example 968, N-(3-chloro-4-(trifluoromethoxy)benzyl)-2-propionamidoisonicotinamide]
CCC(=O)Nc1cc(C(=O)NCc2ccc(OCC(C)(F)F)nc2)ccn1 [Example 719, N-((6-(2,2-difluoropropoxy)pyridin-3-yl)methyl)-2-propionamidoisonicotinamide]
CC(=O)Nc1cc(C(=O)NCc2cccc(C(F)(F)F)c2F)cc(C)n1 [Example 729, 2-acetamido-N-(2-fluoro-3-(trifluoromethyl)benzyl)-6-methylisonicotinamide]
COc1nc(OCC(F)(F)F)ccc1CNC(=O)c1cc(C)nc(NC(=O)CC2CC2)c1 [Example 960, 2-(2-cyclopropylacetamido)-N-((2-methoxy-6-(2,2,2-trifluoroethoxy)pyridin-3-yl)methyl)-6-methylisonicotinamide]
O=C(NCc1cccc(OCC(F)(F)F)n1)c1ccnc(NC(=O)C2CC2)c1 [Example 465, 2-(cyclopropanecarboxamido)-N-((6-(2,2,2-trifluoroethoxy)pyridin-2-yl)methyl)isonicotinamide]
CC(NC(=O)c1ccnc(NC(=O)C2CC2)n1)c1ccc(OCC(F)(F)C(F)(F)F)nc1 (single isomer, unassigned) [Example 694, 2-(cyclopropanecarboxamido)-N-(1-(6-(2,2,3,3,3-pentafluoropropoxy)pyridin-3-yl)ethyl)pyrimidine-4-carboxamide]
Cc1cc(CNC(=O)c2ccnc(NC(=O)C3CC3)c2)nc(OCC(F)(F)F)c1 [Example 578, 2-(cyclopropanecarboxamido)-N-((4-methyl-6-(2,2,2-trifluoroethoxy)pyridin-2-yl)methyl)isonicotinamide]
CCC(=O)Nc1cc(C(=O)NCc2cc(C)cc(OC(F)(F)F)c2)ccn1 [Example 598, N-(3-methyl-5-(trifluoromethoxy)benzyl)-2-propionamidoisonicotinamide]
Cc1cc(C(=O)NCc2cnc(OCC(F)(F)F)cc2C)cc(NC(=O)C(C)C)n1 [Example 516, 2-isobutyramido-6-methyl-N-((4-methyl-6-(2,2,2-trifluoroethoxy)pyridin-3-yl)methyl)isonicotinamide]
CCc1cc(CNC(=O)c2cc(C)nc(NC(=O)C(C)C)c2)cnc1OCC(F)(F)F [Example 715, N-((5-ethyl-6-(2,2,2-trifluoroethoxy)pyridin-3-yl)methyl)-2-isobutyramido-6-methylisonicotinamide]
Cc1ccc(OCC(F)(F)F)nc1CNC(=O)c1ccnc(NC(=O)C(C)C)c1 [Example 566, 2-isobutyramido-N-((3-methyl-6-(2,2,2-trifluoroethoxy)pyridin-2-yl)methyl)isonicotinamide]
O=C(NCc1cc(OC(F)(F)F)ccc1F)c1ccnc(NC(=O)C2CC2)c1 [Example 608]
O=C(NCc1cc(C(F)(F)F)cc(C(F)(F)F)c1)c1ccnc(NC(=O)C2CC2)n1 [Example 736, N-(3,5-bis(trifluoromethyl)benzyl)-2-(cyclopropanecarboxamido)pyrimidine-4-carboxamide]

Source: US9302991B2, “Arylamide derivatives as TTX-S blockers” (RaQualia Pharma Inc., priority 2010, dated 2016)
